≈ marks a conversion by molar mass, not a printed value.
Assays:
[1] = system: WI-38; test: Cytotoxicity against human WI38 cells by MTT assay; format: cell-based
[2] = in vitro; settings: human, WI38 cells
Description: Selectivity index, ratio of IC50 for human WI38 cells to IC50 for Trypanosoma brucei brucei Lister 427 bloodstream form

[3] = system: Leishmania mexicana mexicana; test: Antileishmanial activity against Leishmania mexicana mexicana MHOM/BZ/84/BEL46 promastigotes assessed as parasite LDH activity by three-fold serial dilution method; format: functional, organism-based
[4] = Selectivity index, ratio of IC50 for human WI38 cells to IC50 for Leishmania mexicana mexicana MHOM/BZ/84/BEL46 promastigotes; format: toxicity, cell-based, WI-38; settings: read-out: Ratio IC50
[5] = system: Plasmodium falciparum; test: Antiplasmodial activity against erythrocytic stage of chloroquine-sensitive Plasmodium falciparum 3D7 assessed as parasite LDH activity by three-fold serial dilution method; format: functional, organism-based
[6] = system: Trypanosoma brucei brucei; test: Antitrypanosomal activity against Trypanosoma brucei brucei Lister 427 bloodstream form assessed as parasite LDH activity by three-fold serial dilution method; format: functional, organism-based
[7] = Selectivity index, ratio of IC50 for human WI38 cells to IC50 for erythrocytic stage of chloroquine-sensitive Plasmodium falciparum 3D7; format: toxicity, cell-based, WI-38; settings: read-out: Ratio IC50

Row | SMILES | IC50 [1] [µg/mL] | selectivity ratio [2] | IC50 [3] [µg/mL] | selectivity ratio [4] | IC50 [5] [µg/mL] | IC50 [6] [µg/mL] | selectivity ratio [7]
1 | C=C[C@H]1CN2CC[C@H]1C[C@H]2[C@H](O)c1cc(CC[C@@H](C)[C@H]2CC[C@H]3[C@@H]4[C@H](O)C[C@@H]5C[C@H](O)CC[C@]5(C)[C@H]4CC[C@]23C)nc2ccccc12 | 1.71 (≈ 2.67 µM) | 4.3 | 3.45 (≈ 5.38 µM) | 0.5 | 0.23 (≈ 0.359 µM) | 0.4 (≈ 0.624 µM) | 7.5
2 | C=C[C@H]1CN2CC[C@H]1C[C@H]2[C@H](O)c1cc(CC[C@@H](C)[C@H]2CC[C@H]3[C@@H]4CC[C@@H]5C[C@H](OC(C)=O)CC[C@]5(C)[C@H]4CC[C@]23C)nc2ccc(OC)cc12 | 16.2 (≈ 23.2 µM) | 8 | 14 (≈ 20 µM) | 1.2 | 6.07 (≈ 8.71 µM) | 2.03 (≈ 2.91 µM) | 2.7
3 | C=C[C@H]1CN2CC[C@H]1C[C@H]2[C@H](O)c1cc(CC[C@@H](C)[C@H]2CC[C@H]3[C@@H]4CC[C@@H]5C[C@H](O)CC[C@]5(C)[C@H]4CC[C@]23C)nc2ccccc12 | 9.28 (≈ 14.8 µM) | 4.3 | 12.8 (≈ 20.5 µM) | 0.72 | 1.07 (≈ 1.71 µM) | 2.16 (≈ 3.46 µM) | 8.7
4 | C=C[C@H]1CN2CC[C@H]1C[C@H]2[C@H](O)c1cc(CC[C@@H](C)[C@H]2CC[C@H]3[C@@H]4[C@H](OC(C)=O)C[C@@H]5C[C@H](OC(C)=O)CC[C@]5(C)[C@H]4CC[C@]23C)nc2ccccc12 | 1.77 (≈ 2.44 µM) | 4.3 | 3.91 (≈ 5.39 µM) | 0.45 | 0.21 (≈ 0.29 µM) | 0.41 (≈ 0.565 µM) | 8.4
5 | C=C[C@H]1CN2CC[C@H]1C[C@H]2[C@H](O)c1ccnc2ccccc12 [CINCHONIDINE] | > 20 | – | 5.74 (≈ 19.5 µM) | 0.96 | 0.28 (≈ 0.951 µM) | 18.3 (≈ 62.1 µM) | > 71
6 | C=C[C@H]1CN2CC[C@H]1C[C@H]2[C@@H](O)c1cc(CC[C@@H](C)[C@H]2CC[C@H]3[C@@H]4CC[C@@H]5C[C@H](O)CC[C@]5(C)[C@H]4CC[C@]23C)nc2ccc(OC)cc12 | 2.59 (≈ 3.95 µM) | 3.3 | 4.05 (≈ 6.18 µM) | 0.64 | 0.68 (≈ 1.04 µM) | 0.79 (≈ 1.21 µM) | 3.8
7 | C[C@@H]1[C@H](O)[C@@H](C)/C=C/C=C/C=C/C=C/C=C/C=C/C=C/[C@H](O[C@@H]2O[C@H](C)[C@@H](O)[C@H](N)[C@@H]2O)C[C@@H]2O[C@](O)(C[C@@H](O)C[C@@H](O)[C@H](O)CC[C@@H](O)C[C@@H](O)CC(=O)O[C@H]1C)C[C@H](O)[C@H]2C(=O)O [AMPHOTERICIN B] | – | – | 0.1 (≈ 0.108 µM) | – | – | – | –
8 | C=C[C@H]1CN2CC[C@H]1C[C@H]2[C@H](O)c1cc(CC[C@@H](C)[C@H]2CC[C@H]3[C@@H]4CC[C@@H]5C[C@H](O)CC[C@]5(C)[C@H]4CC[C@]23C)nc2ccc(OC)cc12 | > 20 | – | > 20 | – | 4.24 (≈ 6.47 µM) | 3.53 (≈ 5.39 µM) | –
9 | C=C[C@H]1CN2CC[C@H]1C[C@@H]2[C@@H](O)c1ccnc2ccccc12 [CINCHONINE] | > 20 | – | > 20 | – | 0.09 (≈ 0.306 µM) | > 20 | > 222
10 | C=C[C@H]1CN2CC[C@H]1C[C@H]2[C@@H](O)c1cc(CC[C@@H](C)[C@H]2CC[C@H]3[C@@H]4[C@H](O)C[C@@H]5C[C@H](O)CC[C@]5(C)[C@H]4CC[C@]23C)nc2ccc(OC)cc12 | 1.95 (≈ 2.91 µM) | 5.3 | 3.86 (≈ 5.75 µM) | 0.51 | 0.14 (≈ 0.209 µM) | 0.37 (≈ 0.551 µM) | 14
11 | C=C[C@H]1CN2CC[C@H]1C[C@H]2[C@@H](O)c1cc(CC[C@@H](C)[C@H]2CC[C@H]3[C@@H]4[C@H](OC(C)=O)C[C@@H]5C[C@H](OC(C)=O)CC[C@]5(C)[C@H]4CC[C@]23C)nc2ccccc12 | 1.93 (≈ 2.66 µM) | 4.5 | 4.11 (≈ 5.67 µM) | 0.47 | 0.19 (≈ 0.262 µM) | 0.43 (≈ 0.593 µM) | 10.2
12 | CC[C@@]1(O)C(=O)OCc2c1cc1n(c2=O)Cc2cc3ccccc3nc2-1 [CAMPTOTHECIN] | 0.4 (≈ 1.15 µM) | – | – | – | – | – | –
13 | C=C[C@H]1CN2CC[C@H]1C[C@H]2[C@@H](O)c1cc(CC[C@@H](C)[C@H]2CC[C@H]3[C@@H]4[C@H](OC(C)=O)C[C@@H]5C[C@H](OC(C)=O)CC[C@]5(C)[C@H]4CC[C@]23C)nc2ccc(OC)cc12 | 3.1 (≈ 4.11 µM) | 7.1 | 4.15 (≈ 5.5 µM) | 0.75 | 0.38 (≈ 0.503 µM) | 0.44 (≈ 0.583 µM) | 8.1
14 | C=C[C@H]1CN2CC[C@H]1C[C@H]2[C@@H](O)c1cc(CC[C@@H](C)[C@H]2CC[C@H]3[C@@H]4[C@H](O)C[C@@H]5C[C@H](O)CC[C@]5(C)[C@H]4CC[C@]23C)nc2ccccc12 | 1.42 (≈ 2.22 µM) | 3.6 | 3.39 (≈ 5.29 µM) | 0.42 | 0.09 (≈ 0.14 µM) | 0.39 (≈ 0.608 µM) | 15.7
15 | C=C[C@H]1CN2CC[C@H]1C[C@H]2[C@H](O)c1cc(CC[C@@H](C)[C@H]2CC[C@H]3[C@@H]4[C@H](OC(C)=O)C[C@@H]5C[C@H](OC(C)=O)CC[C@]5(C)[C@H]4CC[C@]23C)nc2ccc(OC)cc12 | 3.92 (≈ 5.19 µM) | 3.2 | 3.49 (≈ 4.62 µM) | 1.1 | 0.69 (≈ 0.914 µM) | 1.22 (≈ 1.62 µM) | 5.6
16 | C=C[C@H]1CN2CC[C@H]1C[C@@H]2[C@@H](O)c1ccnc2ccc(OC)cc12 [QUINIDINE] | 11.3 (≈ 34.8 µM) | 1.3 | > 20 | – | 0.06 (≈ 0.185 µM) | 8.42 (≈ 26 µM) | 179
17 | C=C[C@H]1CN2CC[C@H]1C[C@H]2[C@@H](O)c1cc(CC[C@@H](C)[C@H]2CC[C@H]3[C@@H]4CC[C@@H]5C[C@H](O)CC[C@]5(C)[C@H]4CC[C@]23C)nc2ccccc12 | 3.97 (≈ 6.35 µM) | 1.3 | 4.08 (≈ 6.53 µM) | 0.97 | 0.86 (≈ 1.38 µM) | 3.01 (≈ 4.82 µM) | 4.6
18 | C=C[C@H]1CN2CC[C@H]1C[C@H]2[C@H](O)c1ccnc2ccc(OC)cc12 [QUININE] | 6.56 (≈ 20.2 µM) | 1 | > 20 | – | 0.2 (≈ 0.616 µM) | 6.87 (≈ 21.2 µM) | 32
19 | C=C[C@H]1CN2CC[C@H]1C[C@H]2[C@@H](O)c1cc(CC[C@@H](C)[C@H]2CC[C@H]3[C@@H]4CC[C@@H]5C[C@H](OC(C)=O)CC[C@]5(C)[C@H]4CC[C@]23C)nc2ccccc12 | 7.02 (≈ 10.5 µM) | 5.6 | 12.1 (≈ 18.1 µM) | 0.58 | 2.26 (≈ 3.39 µM) | 1.26 (≈ 1.89 µM) | 3.1
20 | C=C[C@H]1CN2CC[C@H]1C[C@H]2[C@@H](O)c1cc(CC[C@@H](C)[C@H]2CC[C@H]3[C@@H]4CC[C@@H]5C[C@H](OC(C)=O)CC[C@]5(C)[C@H]4CC[C@]23C)nc2ccc(OC)cc12 | 7.79 (≈ 11.2 µM) | 2.6 | 13.7 (≈ 19.6 µM) | 0.57 | 0.81 (≈ 1.16 µM) | 2.97 (≈ 4.26 µM) | 9.7
21 | Cc1ccc(C(=O)Nc2ccc(S(=O)(=O)O)c3cc(S(=O)(=O)O)cc(S(=O)(=O)O)c23)cc1NC(=O)c1cccc(NC(=O)Nc2cccc(C(=O)Nc3cc(C(=O)Nc4ccc(S(=O)(=O)O)c5cc(S(=O)(=O)O)cc(S(=O)(=O)O)c45)ccc3C)c2)c1 [SURAMIN] | – | – | – | – | – | 0.11 (≈ 0.0848 µM) | –
